Experimental data as given in patent EP0409236A1, “Optically active naphthylethanol derivative” (Eisai Co., Ltd., priority 1989, dated 1991).
“And” between values parts separate entries of the source, which are not always exact repeats. Equal values may be shown once. Where a name gives a salt, the structure may show the parent alone.

Assays:
male ddy mice = assay: Effect on KCN-induced mortality in mice; conditions: mouse, in vivo; hydrochloride
[1] = system: pyramidal cells in the CA1 region of the gerbil hippocampus; assay: Effect on ischemia-induced neuronal damage in the gerbil hippocampus; format: in vivo; conditions: i.p., one hour before 5-min ischemia, normal pyramidal cells in 0.105 x 1.175 mm² of CA1, one week later
Excerpt: Effect on ischemia-induced neuronal damage in the gerbil hippo- campus
Kirino reported that a brief cerebral ischemia caused the destruction of the pyramidal cells in the CA1 region of the gerbil hippocampus [Brain Res. 239: 57-69 (1982)]. Effect of the compound(B) on this ischemia-induced neuronal damage was examined.
The compounds were intraperitoneally administered to each animal and one hour later 5-min ischemia was produced by clamping both common carotid arteries. One week after the 5-min ischemia gerbils were fixed by transcardiac perfusion of fixative which consisted of 4% formaldehyde in phosphate buffer (pH 7.4). The fixed brain was embedded in paraffin and semi-thin (3 µm) sections were cut at a level of the dorsal hippocampus. The sections were stained with feulgen for cell counting by an image-analyzing computer. Normal pyramidal cells in the area of 0.105 x 1.175 mm² were counted.

O=C(c1ccc(F)cc1)C1CCN(C[C@@H](O)c2ccc3ccccc3c2)CC1 [d-isomer of compound (B), hydrochloride]
Survival time (sec) mean ± SEM (male ddy mice): 52.4 ± 2.4 s and 50.1 ± 1.6 s and 62.5 ± 4.4 s | neuronal density mean ± SEM ([1]; 1 mg/kg): 9.3 ± 4.6 | neuronal density mean ± SEM ([1]; 3 mg/kg): 16.5 ± 4.0 | neuronal density mean ± SEM ([1]; 10 mg/kg): 34.6 ± 1.1

(R)-(-)-2-[4-(p-Fluorobenzoyl)-1-piperidylj-1-naphthylethanol hydrochloride [ℓ-isomer of compound (B)]
Survival time (sec) mean ± SEM (male ddy mice): 40.2 ± 1.8 s and 43.0 ± 1.8 s and 44.8 ± 1.9 s | neuronal density mean ± SEM ([1]; 3 mg/kg): 1.9 ± 0.5 | neuronal density mean ± SEM ([1]; 10 mg/kg): 17.2 ± 5.2 | neuronal density mean ± SEM ([1]; 30 mg/kg): 12.0 ± 3.4
